Where two headings read alike, the source gives them in different places.
How the values were obtained:
[1] = rat
[2] = Stability in human subcutaneous skin homogenate; details: for AUC: human
[3] = Stability in liver microsomes, rat
[4] = dog
[5] = Stability in liver microsomes, dog
[6] = Stability in liver microsomes, human; details: for AUC: human

Row | SMILES | AUC [1] | Trep Concentration 0 min [2] | Trep Concentration 30 min [2] | Trep Concentration 60 min [2] | Trep Concentration 120 min [2] | AUC [2] | Trep Concentration 0 min [3] | Trep Concentration 10 min [3] | Trep Concentration 20 min [3] | Trep Concentration 30 min [3] | Trep Concentration 60 min [3] | AUC [4] | Trep Concentration 0 min [5] | Trep Concentration 10 min [5] | Trep Concentration 20 min [5] | Trep Concentration 30 min [5] | Trep Concentration 60 min [5] | Trep Concentration 0 min [6] | Trep Concentration 10 min [6] | Trep Concentration 20 min [6] | further results
1 | CCCCCC(CCC1C(O)CC2Cc3c(cccc3OCC(=O)O)CC21)OC(=O)OC(C)C (stereo not drawn) [XVII] | 29.40 µmol·min/L | 0 µM | 0.064 µM | 0.12 µM | 0.22 µM | 13.92 µmol·min/L | 0.29 µM | 0.46 µM | 0.48 µM | 0.53 µM | 0.53 µM | 42.10 µmol·min/L | 0.45 µM | 0.57 µM | 0.66 µM | 0.74 µM | 0.85 µM | 0.55 µM | 0.55 µM | 0.5 µM | Trep Concentration 30 min [6]: 0.39 µM; Trep Concentration 60 min [6]: 0.27 µM; AUC [6]: 25.10 µmol·min/L
2 | CCCCCC(CCC1C(O)CC2Cc3c(cccc3OCC(=O)O)CC21)OC(=O)OCC(=O)O (stereo not drawn) [XXXIX] | 0.00 µmol·min/L | 0 µM | 0 µM | 0 µM | 0 µM | 0.00 µmol·min/L | 0 µM | 0 µM | 0 µM | 0 µM | 0 µM | 0.00 µmol·min/L | 0 µM | 0 µM | 0 µM | 0 µM | 0 µM | 0 µM | 0 µM | 0 µM | Trep Concentration 30 min [6]: 0 µM; Trep Concentration 60 min [6]: 0 µM; AUC [6]: 0.00 µmol·min/L
3 | CCCCCC(CCC1C(O)CC2Cc3c(cccc3OCC(=O)O)CC21)OC(=O)OCC (stereo not drawn) [XVI] | 54.90 µmol·min/L | 0 µM | 0.17 µM | 0.31 µM | 0.53 µM | 34.95 µmol·min/L | 0.98 µM | 0.97 µM | 0.92 µM | 0.91 µM | 0.86 µM | 56.90 µmol·min/L | 0.66 µM | 0.95 µM | 1.01 µM | 1.01 µM | 0.92 µM | 0.69 µM | 0.6 µM | 0.49 µM | Trep Concentration 30 min [6]: 0.41 µM; Trep Concentration 60 min [6]: 0.25 µM; AUC [6]: 26.30 µmol·min/L
